Assay results taken from the supplement of paper PMC11451515.

Legend:
Conditions in all cases: 48 h
SEM cells [1] = test: cell viability relative to DMSO control; higher = less cytotoxic
How it was run: (§1)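 In 1536-well plates, 5 μl of leukemia cells were seeded per well: 500 cells/well for NOMO1 or SEM and 1000 cells/well for P12-Ichikawa. Each line had first been adapted for at least four passages in each medium. Library compounds in DMSO were pin-dosed at 11 threefold concentrations between 47 μM and 0.79 nM, and CellTiter-Glo One luminescence was read after 48 h at 37°C. Viability is a per-plate percentage relative to DMSO wells, with cell-free wells as background.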

NOMO1 [2] = test: AUC of viability dose-response curve (% viability x log10 dose units); higher = less sensitive
How it was run: (§2)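 Over 48 h at 37°C, leukemia cells in 1536-well plates (500 or 1000 cells/well), adapted to each medium, received library compounds in DMSO at 11 threefold doses from 47 μM to 0.79 nM. CellTiter-Glo One luminescence, normalised per plate to DMSO and cell-free wells, was fitted by a four-parameter log-logistic function of log10 dose. The area under the curve was then integrated by trapezoidal rule, after scaling curves above full viability and removing those that failed quality control.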

P12-Ichikawa [3] = test: as above
How it was run: as §2

SEM cells [4] = test: as above
How it was run: as §2

NOMO1 [5] = test: cell viability relative to DMSO control; higher = less cytotoxic
How it was run: as §1

P12-Ichikawa [6] = test: as above
How it was run: as §1

COC1=CC=C2[N](CCCN(C)C)C=C(C2=C1)C/3=C(/C(=O)NC3=O)C4=C[NH]C5=C4C=CC=C5
SEM cells [1], HPLM + 10% dialyzed FBS
Conditions	cell viability [%]
0.000781 µM	107
0.00234 µM	123
0.00702 µM	123
0.0211 µM	123
0.0632 µM	122
0.19 µM	57.2
0.569 µM	132
1.71 µM	111
5.12 µM	88.4
15.4 µM	67.4
46.1 µM	8.06

AUC of viability dose-response curve
Conditions	NOMO1 [2]	P12-Ichikawa [3]	SEM cells [4]
HPLM + 10% dialyzed FBS	471	456	425
RPMI 5 mM glucose + 10% FBS	471	453	365
RPMI 5 mM glucose + 10% dialyzed FBS	472	452	387

COc1c(O)cc2c(c1O)[C@@H]1O[C@H](CO)[C@@H](O)[C@H](O)[C@H]1OC2=O
AUC of viability dose-response curve
Conditions	NOMO1 [2]	P12-Ichikawa [3]	SEM cells [4]
HPLM + 10% dialyzed FBS	419	432	431
RPMI 5 mM glucose + 10% FBS	448	432	394
RPMI 5 mM glucose + 10% dialyzed FBS	454	427	409

CN(C)CCCN\C1=C\2C(=O)N(C)C(=O)\N=C2N(C)C3=C1C=CC=C3
AUC of viability dose-response curve
Conditions	NOMO1 [2]	P12-Ichikawa [3]	SEM cells [4]
HPLM + 10% dialyzed FBS	446	442	396
RPMI 5 mM glucose + 10% FBS	446	421	394
RPMI 5 mM glucose + 10% dialyzed FBS	432	429	397

CN1C2CCC1CC(OC(=O)C(CO)c1ccccc1)C2 (stereo unspecified)
AUC of viability dose-response curve
Conditions	NOMO1 [2]	P12-Ichikawa [3]	SEM cells [4]
HPLM + 10% dialyzed FBS	467	454	464
RPMI 5 mM glucose + 10% FBS	463	465	439
RPMI 5 mM glucose + 10% dialyzed FBS	472	469	474

CC(C)(Sc1ccc(CCN(CCCCC2CCCCC2)C(=O)NC2CCCCC2)cc1)C(=O)O
cell viability [%]
Conditions	NOMO1 [5]	P12-Ichikawa [6]	SEM cells [1]
HPLM + 10% dialyzed FBS, 0.000781 µM	107	114	98.9
HPLM + 10% dialyzed FBS, 0.00234 µM	120	115	105
HPLM + 10% dialyzed FBS, 0.00702 µM	101	116	110
HPLM + 10% dialyzed FBS, 0.0211 µM	111	115	102
HPLM + 10% dialyzed FBS, 0.0632 µM	109	110	106
HPLM + 10% dialyzed FBS, 0.19 µM	109	109	113
HPLM + 10% dialyzed FBS, 0.569 µM	118	111	111
HPLM + 10% dialyzed FBS, 1.71 µM	108	105	96.3
HPLM + 10% dialyzed FBS, 5.12 µM	101	107	94.4
HPLM + 10% dialyzed FBS, 15.4 µM	114	101	93.9
HPLM + 10% dialyzed FBS, 46.1 µM	101	83.4	98.9
RPMI 5 mM glucose + 10% FBS, 0.000781 µM	102	111	96.3
RPMI 5 mM glucose + 10% FBS, 0.00234 µM	120	112	108
RPMI 5 mM glucose + 10% FBS, 0.00702 µM	113	106	117
RPMI 5 mM glucose + 10% FBS, 0.0211 µM	110	110	114
RPMI 5 mM glucose + 10% FBS, 0.0632 µM	120	109	102
RPMI 5 mM glucose + 10% FBS, 0.19 µM	120	111	105
RPMI 5 mM glucose + 10% FBS, 0.569 µM	107	115	105
RPMI 5 mM glucose + 10% FBS, 1.71 µM	118	102	98.8
RPMI 5 mM glucose + 10% FBS, 5.12 µM	98	107	107
RPMI 5 mM glucose + 10% FBS, 15.4 µM	95.6	89	89.6
RPMI 5 mM glucose + 10% FBS, 46.1 µM	118	86.2	75.9
RPMI 5 mM glucose + 10% dialyzed FBS, 0.000781 µM	106	113	103
RPMI 5 mM glucose + 10% dialyzed FBS, 0.00234 µM	102	110	107
RPMI 5 mM glucose + 10% dialyzed FBS, 0.00702 µM	102	114	102
RPMI 5 mM glucose + 10% dialyzed FBS, 0.0211 µM	114	122	111
RPMI 5 mM glucose + 10% dialyzed FBS, 0.0632 µM	113	116	117
RPMI 5 mM glucose + 10% dialyzed FBS, 0.19 µM	104	113	101
RPMI 5 mM glucose + 10% dialyzed FBS, 0.569 µM	112	104	114
RPMI 5 mM glucose + 10% dialyzed FBS, 1.71 µM	108	111	96.9
RPMI 5 mM glucose + 10% dialyzed FBS, 5.12 µM	93.7	104	101
RPMI 5 mM glucose + 10% dialyzed FBS, 15.4 µM	114	102	113
RPMI 5 mM glucose + 10% dialyzed FBS, 46.1 µM	98.8	73.5	82.1

AUC of viability dose-response curve
Conditions	NOMO1 [2]	P12-Ichikawa [3]	SEM cells [4]
HPLM + 10% dialyzed FBS	467	460	460
RPMI 5 mM glucose + 10% FBS	467	462	463
RPMI 5 mM glucose + 10% dialyzed FBS	472	460	472

C[C@@H]1C(=O)OC2[C@H](O)[C@]34[C@H]5C[C@@H](C(C)(C)C)[C@]36[C@@H](OC(=O)[C@@H]6O)O[C@@]4(C(=O)O5)[C@]21O (stereo partly specified)
SEM cells [1], HPLM + 10% dialyzed FBS
Conditions	cell viability [%]
0.000781 µM	116
0.00234 µM	102
0.00702 µM	129
0.0211 µM	119
0.0632 µM	127
0.19 µM	116
0.569 µM	117
1.71 µM	119
5.12 µM	91.8
15.4 µM	107
46.1 µM	65.8

AUC of viability dose-response curve
Conditions	NOMO1 [2]	P12-Ichikawa [3]	SEM cells [4]
HPLM + 10% dialyzed FBS	450	452	451
RPMI 5 mM glucose + 10% FBS	457	445	437
RPMI 5 mM glucose + 10% dialyzed FBS	457	450	424

C[C@H](NCc1ccc(OCc2cccc(F)c2)cc1)C(N)=O
cell viability [%]
Conditions	NOMO1 [5]	P12-Ichikawa [6]	SEM cells [1]
HPLM + 10% dialyzed FBS, 0.000781 µM	87.6	95.1	81
HPLM + 10% dialyzed FBS, 0.00234 µM	125	110	102
HPLM + 10% dialyzed FBS, 0.00702 µM	121	107	102
HPLM + 10% dialyzed FBS, 0.0211 µM	113	123	107
HPLM + 10% dialyzed FBS, 0.0632 µM	116	116	97.6
HPLM + 10% dialyzed FBS, 0.19 µM	116	122	76.7
HPLM + 10% dialyzed FBS, 0.569 µM	124	114	58
HPLM + 10% dialyzed FBS, 1.71 µM	133	115	42.3
HPLM + 10% dialyzed FBS, 5.12 µM	97.7	104	29.6
HPLM + 10% dialyzed FBS, 15.4 µM	95.1	98	30.7
HPLM + 10% dialyzed FBS, 46.1 µM	18.4	17.8	9.65
RPMI 5 mM glucose + 10% FBS, 0.000781 µM	110	99.9	102
RPMI 5 mM glucose + 10% FBS, 0.00234 µM	109	105	99.9
RPMI 5 mM glucose + 10% FBS, 0.00702 µM	106	112	106
RPMI 5 mM glucose + 10% FBS, 0.0211 µM	108	119	100
RPMI 5 mM glucose + 10% FBS, 0.0632 µM	106	124	106
RPMI 5 mM glucose + 10% FBS, 0.19 µM	117	126	92.1
RPMI 5 mM glucose + 10% FBS, 0.569 µM	122	134	60.1
RPMI 5 mM glucose + 10% FBS, 1.71 µM	111	109	44.1
RPMI 5 mM glucose + 10% FBS, 5.12 µM	113	103	26
RPMI 5 mM glucose + 10% FBS, 15.4 µM	104	87.4	22.1
RPMI 5 mM glucose + 10% FBS, 46.1 µM	50.3	32.9	10.9
RPMI 5 mM glucose + 10% dialyzed FBS, 0.000781 µM	110	96	78.5
RPMI 5 mM glucose + 10% dialyzed FBS, 0.00234 µM	114	118	99.8
RPMI 5 mM glucose + 10% dialyzed FBS, 0.00702 µM	125	109	102
RPMI 5 mM glucose + 10% dialyzed FBS, 0.0211 µM	110	114	85.1
RPMI 5 mM glucose + 10% dialyzed FBS, 0.0632 µM	107	108	102
RPMI 5 mM glucose + 10% dialyzed FBS, 0.19 µM	123	116	67.1
RPMI 5 mM glucose + 10% dialyzed FBS, 0.569 µM	111	117	47.6
RPMI 5 mM glucose + 10% dialyzed FBS, 1.71 µM	116	114	27.9
RPMI 5 mM glucose + 10% dialyzed FBS, 5.12 µM	99.7	102	21
RPMI 5 mM glucose + 10% dialyzed FBS, 15.4 µM	97.4	80.5	20.6
RPMI 5 mM glucose + 10% dialyzed FBS, 46.1 µM	62.8	33.4	13.2

AUC of viability dose-response curve
Conditions	NOMO1 [2]	P12-Ichikawa [3]	SEM cells [4]
HPLM + 10% dialyzed FBS	445	450	323
RPMI 5 mM glucose + 10% FBS	461	443	325
RPMI 5 mM glucose + 10% dialyzed FBS	454	443	290

CSCC[C@H](NC(=O)[C@H](Cc1c[nH]c2ccccc12)NC(=O)CCNC(=O)OC(C)(C)C)C(=O)N[C@@H](CC(=O)O)C(=O)N[C@@H](Cc1ccccc1)C(N)=O
AUC of viability dose-response curve
Conditions	NOMO1 [2]	P12-Ichikawa [3]	SEM cells [4]
HPLM + 10% dialyzed FBS	440	470	460
RPMI 5 mM glucose + 10% FBS	453	464	461
RPMI 5 mM glucose + 10% dialyzed FBS	456	470	459

COC(=O)N[C@H](C(=O)N1CCC[C@H]1c1ncc(-c2ccc(-c3ccc(-c4cnc([C@@H]5CCCN5C(=O)[C@@H](NC(=O)OC)C(C)C)[nH]4)cc3)cc2)[nH]1)C(C)C
SEM cells [1], HPLM + 10% dialyzed FBS
Conditions	cell viability [%]
0.000781 µM	90.4
0.00234 µM	116
0.00702 µM	132
0.0211 µM	125
0.0632 µM	129
0.19 µM	126
0.569 µM	117
1.71 µM	131
5.12 µM	133
15.4 µM	126
46.1 µM	98.3

AUC of viability dose-response curve
Conditions	NOMO1 [2]	P12-Ichikawa [3]	SEM cells [4]
HPLM + 10% dialyzed FBS	437	473	468
RPMI 5 mM glucose + 10% FBS	458	474	468
RPMI 5 mM glucose + 10% dialyzed FBS	470	473	460

CCCCCCCCCCCCc1ccc([S+](=O)([O-])Nc2nncs2)cc1
AUC of viability dose-response curve
Conditions	NOMO1 [2]	P12-Ichikawa [3]	SEM cells [4]
HPLM + 10% dialyzed FBS	390	411	447
RPMI 5 mM glucose + 10% FBS	443	460	360
RPMI 5 mM glucose + 10% dialyzed FBS	452	451	415
